According to ChEMBL document CHEMBL4507327 (2021):

Legend:
[1] = target: 5-hydroxytryptamine receptor 7 (Homo sapiens) (UniProt P34969); settings: Compound concentration 10.0 uM
Rattus norvegicus = species on record: Rattus norvegicus; assay: Inhibition of Imidazoline I2, Central at 10 µM in the Eurofins-Panlabs radioligand binding assay (Eurofins_assay_241000); set-up: ligand concentration 2 nM; settings: Compound concentration 10.0 uM
[2] = target: Serine/threonine-protein kinase LATS1 (Homo sapiens, UniProt O95835); assay: LATS1(LAT1LGRJ) Takeda global kinase panel
[3] = target: Alpha-2C adrenergic receptor (Homo sapiens) (UniProt P18825); settings: Compound concentration 10.0 uM
[4] = target: 5-hydroxytryptamine receptor 6 (Homo sapiens) (UniProt P50406); settings: Compound concentration 10.0 uM
[5] = target: T1, 5-hydroxytryptamine receptor 3A (Homo sapiens) (UniProt P46098); settings: Compound concentration 10.0 uM
T1 sequence (whole entry): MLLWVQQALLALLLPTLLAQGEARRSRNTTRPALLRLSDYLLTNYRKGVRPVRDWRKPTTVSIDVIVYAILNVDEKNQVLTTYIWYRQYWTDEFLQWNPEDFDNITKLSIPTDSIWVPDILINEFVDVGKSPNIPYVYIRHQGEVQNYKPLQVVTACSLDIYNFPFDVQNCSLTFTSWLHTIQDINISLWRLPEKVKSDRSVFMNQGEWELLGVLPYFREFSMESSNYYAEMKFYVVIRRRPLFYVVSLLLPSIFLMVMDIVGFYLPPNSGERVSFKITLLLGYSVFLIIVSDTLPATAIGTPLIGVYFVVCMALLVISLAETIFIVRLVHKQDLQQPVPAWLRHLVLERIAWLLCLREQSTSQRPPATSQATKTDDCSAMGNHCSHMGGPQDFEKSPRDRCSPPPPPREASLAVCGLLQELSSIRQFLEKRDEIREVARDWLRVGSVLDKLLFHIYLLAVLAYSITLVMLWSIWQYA

[6] = target: Mitogen-activated protein kinase kinase kinase kinase 4 (Homo sapiens, UniProt O95819); assay: HGK [ZC1(M4K4CGP1)] Takeda global kinase panel
[7] = target: Mu-type opioid receptor (Homo sapiens) (UniProt P35372); settings: Compound concentration 10.0 uM
[8] = target: D(1A) dopamine receptor (Homo sapiens) (UniProt P21728); settings: Compound concentration 10.0 uM
[9] = target: Alpha-2A adrenergic receptor (Homo sapiens) (UniProt P08913); settings: Compound concentration 10.0 uM
[10] = target: Kappa-type opioid receptor (Homo sapiens) (UniProt P41145); settings: Compound concentration 10.0 uM
[11] = target: 5-hydroxytryptamine receptor 1B (Homo sapiens) (UniProt P28222); settings: Compound concentration 10.0 uM
[12] = target: T2, 5-hydroxytryptamine receptor 1A (Homo sapiens) (UniProt P08908); settings: Compound concentration 10.0 uM
T2 sequence (whole entry): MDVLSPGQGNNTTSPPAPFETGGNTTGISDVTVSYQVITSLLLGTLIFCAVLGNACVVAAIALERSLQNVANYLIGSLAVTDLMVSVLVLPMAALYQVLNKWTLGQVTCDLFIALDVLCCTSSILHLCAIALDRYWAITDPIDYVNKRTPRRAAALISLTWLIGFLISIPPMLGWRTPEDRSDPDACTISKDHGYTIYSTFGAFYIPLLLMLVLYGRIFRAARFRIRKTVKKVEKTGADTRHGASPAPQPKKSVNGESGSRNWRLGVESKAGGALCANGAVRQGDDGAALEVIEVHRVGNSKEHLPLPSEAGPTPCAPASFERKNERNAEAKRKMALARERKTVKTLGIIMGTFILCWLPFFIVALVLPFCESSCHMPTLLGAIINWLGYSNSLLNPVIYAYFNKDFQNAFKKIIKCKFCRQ

Focal adhesion kinase 1 = Focal adhesion kinase 1 (Homo sapiens, UniProt Q05397); assay: FAK(PTK2LGF1) Takeda global kinase panel
[13] = target: Calcium/calmodulin-dependent protein kinase kinase 1 (Homo sapiens, UniProt Q8N5S9); assay: CAMKK1(CAK1LGT5) Takeda global kinase panel
[14] = target: Tyrosine-protein kinase Yes (Homo sapiens, UniProt P07947); assay: Yes(YES1LGF1) Takeda global kinase panel
[15] = target: Mitogen-activated protein kinase kinase kinase 2 (Homo sapiens, UniProt Q9Y2U5); assay: MEKK2 [MAP3K2(M3K2LGF1)] Takeda global kinase panel
Misshapen-like kinase 1 = Misshapen-like kinase 1 (Homo sapiens, UniProt Q8N4C8); assay: MINK [ZC3(MIN1LGF1)] Takeda global kinase panel
[16] = target: RAC-alpha serine/threonine-protein kinase (Homo sapiens, UniProt P31749); assay: Akt1 [PKBalpha(AKT1PHFB)] Takeda global kinase panel
Myosin-IIIa = Myosin-IIIa (Homo sapiens, UniProt Q8NEV4); assay: MYO3A(MY3ALGRI) Takeda global kinase panel
[17] = target: L-type calcium channel, benzothiazepine site (Cav1.2 alpha-1C) (Homo sapiens, UniProt Q13936); assay: Inhibition of Calcium Channel L-Type, Benzothiazepine at 10 µM in the Eurofins-Panlabs radioligand binding assay (Eurofins_assay_214510); set-up: ligand concentration 2 nM, non-specific ligand with concentration 10 µM Diltiazem, incubation time 3h, incubation temperature 4 °C; settings: male, Wistar, rat, whole brain of rats, probe [3H] Diltiazem; compound concentration 10 uM; target entry is the homologue from another species
[18] = target: Proto-oncogene tyrosine-protein kinase receptor Ret (Homo sapiens, UniProt P07949); assay: Ret(RET1LGF1) Takeda global kinase panel
[19] = target: cAMP-dependent protein kinase catalytic subunit beta (Homo sapiens, UniProt P22694); assay: PKAbeta(PRCBLGF1) Takeda global kinase panel
[20] = target: Calcium/calmodulin-dependent protein kinase type 1D (Homo sapiens, UniProt Q8IU85); assay: CaMK1delta(CA1DLGT5) Takeda global kinase panel
[21] = target: Fibroblast growth factor receptor 2 (Homo sapiens, UniProt P21802); assay: FGFR2(FGF2LGF1) Takeda global kinase panel
[22] = target: Tyrosine-protein kinase ZAP-70 (Homo sapiens, UniProt P43403); assay: ZAP70(ZAP7LGP1) Takeda global kinase panel
[23] = target: Calcium/calmodulin-dependent protein kinase type II subunit alpha (Homo sapiens, UniProt Q9UQM7); assay: CaMK2alpha(CA2ACGT1) Takeda global kinase panel
[24] = target: Proto-oncogene tyrosine-protein kinase Src (Homo sapiens, UniProt P12931); assay: Src(SRC1LGF5) Takeda global kinase panel
[25] = target: 5'-AMP-activated protein kinase catalytic subunit alpha-2 (Homo sapiens, UniProt P54646); assay: AMPKalpha2(PRA2LGY1) Takeda global kinase panel
[26] = target: Calcium/calmodulin-dependent protein kinase type II subunit delta (Homo sapiens, UniProt Q13557); assay: CaMK2delta(CA2DCGT1) Takeda global kinase panel
[27] = target: Calcium/calmodulin-dependent protein kinase kinase 2 (Homo sapiens, UniProt Q96RR4); assay: CAMKK2(CAK2LGT5) Takeda global kinase panel
Tribbles homolog 1 = Tribbles homolog 1 (Homo sapiens, UniProt Q96RU8); assay: Trb1(TRI1PARP) Takeda global kinase panel

Proto-oncogene tyrosine-protein kinase receptor Ret, sequence (P07949 whole entry): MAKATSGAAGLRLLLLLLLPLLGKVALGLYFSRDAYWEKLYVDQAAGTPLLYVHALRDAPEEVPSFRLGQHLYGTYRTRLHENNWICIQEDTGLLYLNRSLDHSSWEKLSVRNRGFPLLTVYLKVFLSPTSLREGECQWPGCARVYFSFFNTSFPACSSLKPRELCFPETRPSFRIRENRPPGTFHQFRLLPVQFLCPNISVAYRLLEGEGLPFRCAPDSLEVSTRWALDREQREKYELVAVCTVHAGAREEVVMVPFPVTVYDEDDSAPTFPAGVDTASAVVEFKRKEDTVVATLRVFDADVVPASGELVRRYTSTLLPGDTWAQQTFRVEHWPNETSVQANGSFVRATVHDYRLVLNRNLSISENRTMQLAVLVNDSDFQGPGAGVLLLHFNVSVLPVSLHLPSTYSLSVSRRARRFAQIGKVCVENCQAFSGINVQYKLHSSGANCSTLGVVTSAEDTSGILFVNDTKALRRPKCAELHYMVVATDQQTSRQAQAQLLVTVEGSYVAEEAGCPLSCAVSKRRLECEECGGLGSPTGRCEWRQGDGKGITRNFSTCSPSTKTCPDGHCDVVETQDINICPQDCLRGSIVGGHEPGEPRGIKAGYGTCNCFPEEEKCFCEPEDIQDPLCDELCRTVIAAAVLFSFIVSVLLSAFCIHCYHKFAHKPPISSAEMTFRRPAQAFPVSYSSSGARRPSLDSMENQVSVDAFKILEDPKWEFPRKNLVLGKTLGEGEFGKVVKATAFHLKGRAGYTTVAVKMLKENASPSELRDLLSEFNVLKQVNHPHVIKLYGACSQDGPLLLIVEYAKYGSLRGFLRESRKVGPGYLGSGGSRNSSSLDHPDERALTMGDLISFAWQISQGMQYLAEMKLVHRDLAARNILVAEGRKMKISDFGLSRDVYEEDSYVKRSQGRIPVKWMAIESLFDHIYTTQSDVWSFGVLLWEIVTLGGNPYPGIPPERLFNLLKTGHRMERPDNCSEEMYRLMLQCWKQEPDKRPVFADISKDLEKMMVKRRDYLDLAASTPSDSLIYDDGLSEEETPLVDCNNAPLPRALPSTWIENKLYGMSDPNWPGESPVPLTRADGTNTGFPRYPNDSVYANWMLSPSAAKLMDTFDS
D(1A) dopamine receptor (Homo sapiens), sequence (P21728 whole entry): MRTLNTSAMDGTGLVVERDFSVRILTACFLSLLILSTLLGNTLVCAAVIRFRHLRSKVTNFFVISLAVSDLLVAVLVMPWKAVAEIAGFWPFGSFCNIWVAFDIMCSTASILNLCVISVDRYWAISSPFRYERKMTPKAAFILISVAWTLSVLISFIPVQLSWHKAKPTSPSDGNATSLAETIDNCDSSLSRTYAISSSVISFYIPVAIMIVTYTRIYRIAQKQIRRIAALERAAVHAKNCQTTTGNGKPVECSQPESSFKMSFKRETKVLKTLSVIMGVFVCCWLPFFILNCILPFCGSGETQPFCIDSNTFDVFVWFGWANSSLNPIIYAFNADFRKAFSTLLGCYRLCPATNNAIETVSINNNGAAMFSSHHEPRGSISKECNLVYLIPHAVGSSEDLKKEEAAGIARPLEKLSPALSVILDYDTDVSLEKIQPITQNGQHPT
Focal adhesion kinase 1, sequence (Q05397 whole entry): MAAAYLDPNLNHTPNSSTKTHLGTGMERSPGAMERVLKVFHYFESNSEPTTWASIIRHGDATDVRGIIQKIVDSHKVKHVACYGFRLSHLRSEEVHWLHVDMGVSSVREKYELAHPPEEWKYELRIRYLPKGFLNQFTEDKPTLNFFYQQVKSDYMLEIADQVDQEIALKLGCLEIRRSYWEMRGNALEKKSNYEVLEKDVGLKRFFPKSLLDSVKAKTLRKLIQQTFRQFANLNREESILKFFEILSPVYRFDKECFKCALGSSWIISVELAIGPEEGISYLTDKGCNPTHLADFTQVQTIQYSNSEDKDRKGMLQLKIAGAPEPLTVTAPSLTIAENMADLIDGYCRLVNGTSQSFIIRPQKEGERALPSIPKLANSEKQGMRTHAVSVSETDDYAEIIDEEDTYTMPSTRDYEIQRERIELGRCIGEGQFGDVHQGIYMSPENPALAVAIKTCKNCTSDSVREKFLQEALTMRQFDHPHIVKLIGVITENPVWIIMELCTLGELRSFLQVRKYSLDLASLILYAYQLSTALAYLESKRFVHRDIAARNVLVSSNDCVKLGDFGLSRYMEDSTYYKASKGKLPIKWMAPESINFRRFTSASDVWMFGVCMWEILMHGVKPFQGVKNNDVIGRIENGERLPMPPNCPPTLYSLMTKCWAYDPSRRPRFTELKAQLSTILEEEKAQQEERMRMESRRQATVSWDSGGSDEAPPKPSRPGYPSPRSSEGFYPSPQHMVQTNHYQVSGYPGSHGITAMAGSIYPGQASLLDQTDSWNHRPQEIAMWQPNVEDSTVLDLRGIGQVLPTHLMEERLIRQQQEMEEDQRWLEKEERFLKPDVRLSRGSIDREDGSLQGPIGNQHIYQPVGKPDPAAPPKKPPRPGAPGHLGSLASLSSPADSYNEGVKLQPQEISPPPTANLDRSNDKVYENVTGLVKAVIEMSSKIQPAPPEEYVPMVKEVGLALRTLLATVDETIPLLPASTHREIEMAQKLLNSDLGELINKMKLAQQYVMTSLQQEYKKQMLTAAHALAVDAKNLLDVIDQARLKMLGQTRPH
5'-AMP-activated protein kinase catalytic subunit alpha-2, sequence (P54646 whole entry): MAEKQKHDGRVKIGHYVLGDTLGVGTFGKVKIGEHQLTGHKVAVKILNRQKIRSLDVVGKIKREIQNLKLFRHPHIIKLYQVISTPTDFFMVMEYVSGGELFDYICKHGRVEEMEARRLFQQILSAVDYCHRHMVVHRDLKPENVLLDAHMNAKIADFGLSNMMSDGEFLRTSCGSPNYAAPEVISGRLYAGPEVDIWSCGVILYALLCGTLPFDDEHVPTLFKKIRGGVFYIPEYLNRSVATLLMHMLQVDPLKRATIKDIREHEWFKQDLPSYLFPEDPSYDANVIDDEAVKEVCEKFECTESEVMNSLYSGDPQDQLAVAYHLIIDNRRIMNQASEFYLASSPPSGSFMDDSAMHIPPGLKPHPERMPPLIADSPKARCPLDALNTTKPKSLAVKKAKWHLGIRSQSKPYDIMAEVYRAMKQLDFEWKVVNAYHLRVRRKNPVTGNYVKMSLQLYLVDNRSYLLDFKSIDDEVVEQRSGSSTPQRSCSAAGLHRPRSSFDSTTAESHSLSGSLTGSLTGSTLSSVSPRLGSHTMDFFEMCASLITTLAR
Alpha-2A adrenergic receptor (Homo sapiens), sequence (P08913 whole entry): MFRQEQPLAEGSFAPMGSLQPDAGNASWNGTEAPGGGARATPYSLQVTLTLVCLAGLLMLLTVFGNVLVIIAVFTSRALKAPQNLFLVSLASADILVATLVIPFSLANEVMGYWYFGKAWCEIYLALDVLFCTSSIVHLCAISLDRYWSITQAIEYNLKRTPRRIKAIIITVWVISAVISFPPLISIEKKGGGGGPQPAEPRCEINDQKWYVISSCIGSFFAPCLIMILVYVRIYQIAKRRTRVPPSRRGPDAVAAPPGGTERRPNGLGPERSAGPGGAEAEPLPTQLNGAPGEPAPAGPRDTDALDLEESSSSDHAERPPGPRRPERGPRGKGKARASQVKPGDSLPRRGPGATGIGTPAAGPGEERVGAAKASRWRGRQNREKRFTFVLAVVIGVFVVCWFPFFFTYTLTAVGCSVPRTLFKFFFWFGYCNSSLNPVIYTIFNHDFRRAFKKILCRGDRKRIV
Calcium/calmodulin-dependent protein kinase kinase 2, sequence (Q96RR4 whole entry): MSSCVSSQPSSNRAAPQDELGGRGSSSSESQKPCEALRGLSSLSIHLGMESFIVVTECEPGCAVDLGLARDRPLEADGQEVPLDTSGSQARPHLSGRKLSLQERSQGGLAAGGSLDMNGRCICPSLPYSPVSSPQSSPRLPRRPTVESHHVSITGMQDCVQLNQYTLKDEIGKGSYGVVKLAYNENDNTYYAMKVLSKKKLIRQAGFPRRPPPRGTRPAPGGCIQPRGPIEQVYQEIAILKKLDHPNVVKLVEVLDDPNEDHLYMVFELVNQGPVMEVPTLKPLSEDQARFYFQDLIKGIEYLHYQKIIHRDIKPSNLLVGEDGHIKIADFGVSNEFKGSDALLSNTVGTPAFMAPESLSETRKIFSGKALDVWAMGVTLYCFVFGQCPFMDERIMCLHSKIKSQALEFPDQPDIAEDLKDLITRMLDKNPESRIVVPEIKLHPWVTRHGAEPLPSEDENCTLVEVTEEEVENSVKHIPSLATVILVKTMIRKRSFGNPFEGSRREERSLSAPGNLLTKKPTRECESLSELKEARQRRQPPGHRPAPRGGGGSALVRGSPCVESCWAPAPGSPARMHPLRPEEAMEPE
Calcium/calmodulin-dependent protein kinase type II subunit alpha, sequence (Q9UQM7 whole entry): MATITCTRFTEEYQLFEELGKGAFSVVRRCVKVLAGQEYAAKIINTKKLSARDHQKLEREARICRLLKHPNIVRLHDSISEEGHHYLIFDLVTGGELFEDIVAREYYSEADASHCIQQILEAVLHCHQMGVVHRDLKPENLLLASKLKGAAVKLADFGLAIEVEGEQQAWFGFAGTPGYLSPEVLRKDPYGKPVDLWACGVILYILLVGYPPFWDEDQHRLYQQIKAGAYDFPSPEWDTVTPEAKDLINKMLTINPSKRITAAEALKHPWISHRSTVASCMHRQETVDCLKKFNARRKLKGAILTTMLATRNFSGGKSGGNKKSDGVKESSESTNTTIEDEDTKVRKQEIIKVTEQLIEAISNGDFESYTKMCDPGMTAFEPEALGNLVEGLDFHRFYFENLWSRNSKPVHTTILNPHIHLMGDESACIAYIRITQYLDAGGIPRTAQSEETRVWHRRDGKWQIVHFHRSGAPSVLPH

CN1C(=O)[C@@H](N2CCc3cn(Cc4ccccc4)nc3C2=O)COc2ccccc21 [TP-030-1]
inactive: inhibition [1] -1.17% | inhibition (Rattus norvegicus) 6% | inhibition [3] 34.7% | inhibition [4] -3.95% | inhibition [5] 40.8% | inhibition [7] 10.6% | inhibition [8] 18.8% | inhibition [9] 7% | inhibition [10] 14.7% | inhibition [11] 0.99% | inhibition [12] 5.07%
1 µM: IC50 [2] | IC50 [6]

CN1C(=O)[C@@H](N2CCc3cn(CC4CCS(=O)(=O)CC4)nc3C2=O)COc2ccccc21 [TP-030n]
1 µM: IC50 (Focal adhesion kinase 1) | IC50 [13] | IC50 [14] | IC50 [15] | IC50 (Misshapen-like kinase 1) | IC50 [16] | IC50 (Myosin-IIIa) | IC50 [18] | IC50 [19] | IC50 [20] | IC50 [21] | IC50 [22] | IC50 [23] | IC50 [24] | IC50 [25] | IC50 [26] | IC50 [27] | IC50 (Tribbles homolog 1)
2% (not active): inhibition at 3 h, 10 µM [17]
